Values of other authors, collected in patent US11504411B1, “Herbal dietary supplement supporting healthy immune function” (Progressing Bodies, Inc., priority 2021, dated 2022).

What was measured:
[1] = system: norovirus; details: over the course of less than one hour
[2] = system: herpes simplex virus; details: within just one hour

Structure (SMILES)	singlet oxygen quenching strength relative to CoQ10 (versus CoQ10)	singlet oxygen quenching strength relative to green tea catechins (versus green tea catechins)	singlet oxygen quenching strength relative to vitamin C (versus vitamin C)	inactivation of norovirus [1]	herpes simplex virus inactivated [2]
CC1=C(/C=C/C(C)=C/C=C/C(C)=C/C=C/C=C(C)/C=C/C=C(C)/C=C/C2=C(C)C(=O)[C@@H](O)CC2(C)C)C(C)(C)C[C@H](O)C1=O [astaxanthin]	800 times	550 times	6,000 times		
Cc1ccc(C(C)C)cc1O [carvacrol]				inactivated norovirus	90%
Cc1ccc(C(C)C)c(O)c1 [thymol]					90%
